Measurements from patent EP2140864A2 (H. Lundbeck A/S, priority 2001, dated 2002).

What follows are compounds tested against T1, human 5HT1B (Homo sapiens, UniProt P28222) (assay: Radioligand binding, 5HT1B receptor ([3H]-serotonin)). Conditions: Table 7; read-out: h5HT1B Ki.
T1 construct: expressed in transfected cells
Method: Human 5HT1B, 5HT1D, 5HT1E, 5HT1F, and 5HT7 Receptors: The cell lysates of LM(tk-) clonal cell line stably transfected with the genes encoding each of these 5HT receptor-subtypes were prepared as described above. Cell membranes were suspended in 50mM Tris-HCl buffer (pH 7.4 at 37°C) containing 10 mM MgCl2, 0.2 mM EDTA, 10 µM pargyline, and 0.1% ascorbate. […] Nonspecific binding was determined in the presence of 10 µM serotonin. The bound radioligand was separated by filtration through GF/B filters using a cell harvester.
(§1) Binding data were analyzed using nonlinear regression and statistical techniques available in the GraphPAD Prism package (San Diego, CA). Enzymatic assay data were derived from a standard curve of reference compound data.

T1 sequence (P28222 whole entry): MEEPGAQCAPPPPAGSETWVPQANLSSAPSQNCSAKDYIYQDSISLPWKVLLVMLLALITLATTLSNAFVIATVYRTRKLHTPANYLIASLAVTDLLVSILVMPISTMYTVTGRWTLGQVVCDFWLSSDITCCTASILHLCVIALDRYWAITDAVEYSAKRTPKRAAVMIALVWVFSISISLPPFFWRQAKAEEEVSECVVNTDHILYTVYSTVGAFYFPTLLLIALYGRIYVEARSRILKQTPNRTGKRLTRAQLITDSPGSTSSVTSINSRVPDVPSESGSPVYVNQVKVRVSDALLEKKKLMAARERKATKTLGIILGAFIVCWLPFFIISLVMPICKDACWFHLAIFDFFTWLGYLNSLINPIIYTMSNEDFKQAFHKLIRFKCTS

Q: For `Cc1ccc(Nc2cc(N3CCCCC3)nc(N(C)CCc3ccccc3)n2)cc1` [Example 22], which Ki is on record?
A: The Ki was 1.98 µM.

Same assay, conditions: Table 8; Ki h5HT1B divided by Ki hGAL3

Q: `COC[C@@H]1[C@@H](c2ccccc2)OCCN1c1nc(Nc2ccc(C)cc2)cc(N2CCCCC2)n1` [Example 49] was tested. Which “selectivity ratio h5HT1B” value did it give?
A: Its value is over 30.

Q: For `Cc1ccc(Nc2cc(N3CCCCC3)nc(N(C)CCc3ccccc3)n2)cc1` [Example 22], which “selectivity ratio h5HT1B” value is on record?
A: The value was over 30.

Q: For `O=C1C(=Nc2cccc(C(F)(F)F)c2)c2ccccc2N1c1ccccc1` [Example 92, 1-PHENYL-3- [[3-(TRIFLUOROMETHYL)PHENYL]IMINO]-1,3-DIHYDRO-2H-INDOL-2-ONE], which “selectivity ratio h5HT1B” value is on record?
A: The value was over 100.

Same assay, conditions: read-out: h5HT1B Ki; Table 7

Q: How did the Ki turn out when `COC[C@@H]1[C@@H](c2ccccc2)OCCN1c1nc(Nc2ccc(C)cc2)cc(N2CCCCC2)n1` [Example 49] was run?
A: Its Ki is 8.45 µM.

Each compound was assayed against T2, rat 5HT2C receptor (Rattus norvegicus, UniProt P08909) (assay: Radioligand binding, 5HT2C receptor). Conditions: Table 7; read-out: r5HT2C Ki.
T2 construct: expressed in transfected cells
T2 sequence (P08909 33-460): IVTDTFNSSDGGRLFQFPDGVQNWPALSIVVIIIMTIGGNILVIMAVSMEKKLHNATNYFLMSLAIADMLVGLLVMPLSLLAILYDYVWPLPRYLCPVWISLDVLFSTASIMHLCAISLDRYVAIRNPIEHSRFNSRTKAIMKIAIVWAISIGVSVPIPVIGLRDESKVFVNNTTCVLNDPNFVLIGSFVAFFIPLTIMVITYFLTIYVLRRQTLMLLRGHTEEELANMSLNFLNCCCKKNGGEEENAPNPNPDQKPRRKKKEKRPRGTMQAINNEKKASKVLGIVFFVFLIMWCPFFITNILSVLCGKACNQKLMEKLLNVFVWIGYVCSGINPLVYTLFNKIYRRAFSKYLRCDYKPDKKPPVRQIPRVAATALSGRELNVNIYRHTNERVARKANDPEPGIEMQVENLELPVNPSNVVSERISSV
Method: Other 5-HT Receptors: Other serotonin receptor binding assays were performed according to published methods: rat 5HT2C receptor (Julius et al., 1988); and 5-HT6 (Monsma, et al., 1993). The binding assays using the 5-HT4 receptor were performed according to the procedures described in U.S. Patent No. 5,766,879, the disclosure of which is hereby incorporated by reference in its entirety into this application.
as §1

Q: For `Cc1ccc(Nc2cc(N3CCCCC3)nc(N(C)CCc3ccccc3)n2)cc1` [Example 22], which Ki is on record?
A: Its Ki is 1.72 µM.

Same assay, conditions: Table 8; Ki r5HT2C divided by Ki hGAL3

Q: How did the “selectivity ratio r5HT2C” value turn out when `COC[C@@H]1[C@@H](c2ccccc2)OCCN1c1nc(Nc2ccc(C)cc2)cc(N2CCCCC2)n1` [Example 49] was run?
A: Its value is over 30.

Q: `Cc1ccc(Nc2cc(N3CCCCC3)nc(N(C)CCc3ccccc3)n2)cc1` [Example 22] was tested. Which “selectivity ratio r5HT2C” value did it give?
A: Its value is over 30.

Same assay, conditions: read-out: r5HT2C Ki; Table 7

Q: With `COC[C@@H]1[C@@H](c2ccccc2)OCCN1c1nc(Nc2ccc(C)cc2)cc(N2CCCCC2)n1` [Example 49] as the compound, how does the Ki read?
A: The Ki was 6.69 µM.

These compounds were tested against T3, Human 5HT2A Receptor (Homo sapiens, UniProt P28223) (assay: Radioligand binding, 5HT2A receptor ([3H]ketanserin)). Conditions: Table 7; read-out: h5HT2A Ki.
T3 construct: expressed in transfected cells; host or cells: COS-7 cells (pCEXV-3 vector, DEAE-dextran)
T3 sequence (P28223 whole entry): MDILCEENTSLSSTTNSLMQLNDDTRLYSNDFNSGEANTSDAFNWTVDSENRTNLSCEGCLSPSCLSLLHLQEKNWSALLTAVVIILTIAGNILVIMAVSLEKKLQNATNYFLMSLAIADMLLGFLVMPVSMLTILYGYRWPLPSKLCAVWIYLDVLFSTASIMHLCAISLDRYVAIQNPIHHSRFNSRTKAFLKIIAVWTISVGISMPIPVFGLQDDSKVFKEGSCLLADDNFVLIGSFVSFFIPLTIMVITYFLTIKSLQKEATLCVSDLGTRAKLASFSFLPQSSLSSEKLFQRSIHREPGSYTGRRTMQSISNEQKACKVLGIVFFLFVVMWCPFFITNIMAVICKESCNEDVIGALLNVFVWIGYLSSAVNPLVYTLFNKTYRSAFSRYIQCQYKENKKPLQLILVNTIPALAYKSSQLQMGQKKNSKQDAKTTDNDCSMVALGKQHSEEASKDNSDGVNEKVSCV
Method: Human 5HT2A Receptor: The coding sequence of the human 5HT2A receptor was obtained from a human brain cortex cDNA library, and cloned into the cloning site of pCEXV-3 eukaryotic expression vector. This construct was transfected into COS-7 cells by the DEAE-dextran method (Cullen, 1987). Cells were harvested after 72 hours and lysed by sonication in 5 mM Tris-HCl, 5 mM EDTA, pH 7.5. The cell lysates were subjected to centrifugation at 1000 rpm for 5 minutes at 4°C, and the supernatant was subjected to centrifugation at 30,000 x g for 20 minutes at 4°C. The pellet was suspended in 50 mM Tris-HCl buffer (pH 7.7 at room temperature) containing 10 mM MgS04, 0.5 mM EDTA, and 0.1% ascorbate. The affinity of compounds at 5HT2A receptors were determined in equilibrium competition binding assays using [^3H]ketanserin (1 nM). Nonspecific binding was defined by the addition of 10 µM mianserin. The bound radioligand was separated by filtration through GF/B filters using a cell harvester.
as §1

Q: `Cc1ccc(Nc2cc(N3CCCCC3)nc(N(C)CCc3ccccc3)n2)cc1` [Example 22] was tested. Which Ki did it give?
A: Its Ki is 20.7 µM.

Same assay, conditions: Table 8; Ki h5HT2A divided by Ki hGAL3

Q: Which “selectivity ratio h5HT2A” value does the source give for `COC[C@@H]1[C@@H](c2ccccc2)OCCN1c1nc(Nc2ccc(C)cc2)cc(N2CCCCC2)n1` [Example 49] here?
A: Its value is over 100.

Q: How did the “selectivity ratio h5HT2A” value turn out when `Cc1ccc(Nc2cc(N3CCCCC3)nc(N(C)CCc3ccccc3)n2)cc1` [Example 22] was run?
A: The value was over 100.

Q: How did the “selectivity ratio h5HT2A” value turn out when `O=C1C(=Nc2cccc(C(F)(F)F)c2)c2ccccc2N1c1ccccc1` [Example 92, 1-PHENYL-3- [[3-(TRIFLUOROMETHYL)PHENYL]IMINO]-1,3-DIHYDRO-2H-INDOL-2-ONE] was run?
A: The value was over 100.

Same assay, conditions: read-out: h5HT2A Ki; Table 7

Q: How did the Ki turn out when `COC[C@@H]1[C@@H](c2ccccc2)OCCN1c1nc(Nc2ccc(C)cc2)cc(N2CCCCC2)n1` [Example 49] was run?
A: Its Ki is over 50 µM.

What follows are compounds tested against T4, human α1A adrenoceptor (Homo sapiens, UniProt P35348) (assay: Radioligand binding, α1A adrenergic receptor). Conditions: Table 9; read-out: hα1A Ki.
T4 construct: expressed in transfected cells
T4 sequence (P35348 1-466): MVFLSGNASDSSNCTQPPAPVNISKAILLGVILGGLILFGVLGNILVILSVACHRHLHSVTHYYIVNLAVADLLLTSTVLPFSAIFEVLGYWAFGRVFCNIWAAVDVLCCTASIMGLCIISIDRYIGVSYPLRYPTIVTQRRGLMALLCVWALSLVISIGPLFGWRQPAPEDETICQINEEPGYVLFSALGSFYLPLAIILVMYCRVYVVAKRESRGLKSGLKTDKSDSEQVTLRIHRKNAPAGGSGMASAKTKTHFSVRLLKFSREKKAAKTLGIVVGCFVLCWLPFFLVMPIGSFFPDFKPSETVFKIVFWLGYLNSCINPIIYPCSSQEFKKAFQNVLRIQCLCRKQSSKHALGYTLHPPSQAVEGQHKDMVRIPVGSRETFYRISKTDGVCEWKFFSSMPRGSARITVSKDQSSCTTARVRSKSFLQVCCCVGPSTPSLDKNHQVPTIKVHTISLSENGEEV
Source text: (§2) Other receptors: Cell membranes expressing human dopamine D1, D2, D4 and rat D3 receptors were purchased through BioSignal, Inc. (Montreal, Canada). Binding assays using the histamine H1 receptor; dopamine receptors; and α1A, α1E, and α2 adrenergic receptors may be carried out according to the procedures described in U.S. Patent No. 5,780,485, the disclosure of which is hereby incorporated by reference in its entirety into this application. Binding assays using the dopamine D5 receptor may be carried out according to the procedures described in U.S. Patent No. 5,882,855, the disclosure of which is hereby incorporated by reference in its entirety into this application. Binding assays for the human α1D adrenergic receptor may be carried out according to the procedures described in U.S. Patent No. 6,156,518, the disclosure of which is hereby incorporated by reference in its entirety into this application.
as §1

Q: How did the Ki turn out when `Cc1ccc(Nc2cc(N3CCCCC3)nc(N(C)CCc3ccccc3)n2)cc1` [Example 22] was run?
A: The Ki was 1.28 µM.

Same assay, conditions: Table 10; Ki hα1A divided by Ki hGAL3

Q: `COC[C@@H]1[C@@H](c2ccccc2)OCCN1c1nc(Nc2ccc(C)cc2)cc(N2CCCCC2)n1` [Example 49] was tested. Which “selectivity ratio hα1A” value did it give?
A: Its value is over 30.

Q: With `Cc1ccc(Nc2cc(N3CCCCC3)nc(N(C)CCc3ccccc3)n2)cc1` [Example 22] as the compound, how does the “selectivity ratio hα1A” value read?
A: Its value is over 30.

Same assay, conditions: read-out: hα1A Ki; Table 9

Q: `COC[C@@H]1[C@@H](c2ccccc2)OCCN1c1nc(Nc2ccc(C)cc2)cc(N2CCCCC2)n1` [Example 49] was tested. Which Ki did it give?
A: The Ki was 6.65 µM.

What follows are compounds tested against T5, human dopamine D2 (Homo sapiens, UniProt P14416) (assay: Radioligand binding, dopamine D2 receptor). Conditions: Table 9; read-out: hD2 Ki.
T5 construct: purchased BioSignal, Inc. (Montreal, Canada)
T5 sequence (P14416 whole entry): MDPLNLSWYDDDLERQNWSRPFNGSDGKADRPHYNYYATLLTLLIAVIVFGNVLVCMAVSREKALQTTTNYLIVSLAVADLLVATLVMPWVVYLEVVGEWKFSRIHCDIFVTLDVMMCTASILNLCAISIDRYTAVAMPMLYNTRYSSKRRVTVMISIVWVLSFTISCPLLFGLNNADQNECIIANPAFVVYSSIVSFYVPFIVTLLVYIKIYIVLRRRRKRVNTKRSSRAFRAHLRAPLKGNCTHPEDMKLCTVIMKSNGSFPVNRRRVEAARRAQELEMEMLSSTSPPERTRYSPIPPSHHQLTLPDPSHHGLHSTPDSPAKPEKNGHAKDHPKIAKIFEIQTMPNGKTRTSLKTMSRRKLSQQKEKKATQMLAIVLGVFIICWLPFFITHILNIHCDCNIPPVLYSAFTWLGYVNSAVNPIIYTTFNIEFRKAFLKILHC
Source text: as §2, §1

Q: With `Cc1ccc(Nc2cc(N3CCCCC3)nc(N(C)CCc3ccccc3)n2)cc1` [Example 22] as the compound, how does the Ki read?
A: The Ki was 1.5 µM.

Same assay, conditions: Table 10; Ki hD2 divided by Ki hGAL3

Q: For `COC[C@@H]1[C@@H](c2ccccc2)OCCN1c1nc(Nc2ccc(C)cc2)cc(N2CCCCC2)n1` [Example 49], which “selectivity ratio hD2” value is on record?
A: The value was 28.

Q: Which “selectivity ratio hD2” value does the source give for `Cc1ccc(Nc2cc(N3CCCCC3)nc(N(C)CCc3ccccc3)n2)cc1` [Example 22] here?
A: The value was over 30.

Q: How did the “selectivity ratio hD2” value turn out when `O=C1C(=Nc2cccc(C(F)(F)F)c2)c2ccccc2N1c1ccccc1` [Example 92, 1-PHENYL-3- [[3-(TRIFLUOROMETHYL)PHENYL]IMINO]-1,3-DIHYDRO-2H-INDOL-2-ONE] was run?
A: The value was over 100.

Same assay, conditions: read-out: hD2 Ki; Table 9

Q: For `COC[C@@H]1[C@@H](c2ccccc2)OCCN1c1nc(Nc2ccc(C)cc2)cc(N2CCCCC2)n1` [Example 49], which Ki is on record?
A: Its Ki is 5.94 µM.

Each compound was assayed against T6, rat D3 receptors (Rattus norvegicus, UniProt P19020) (assay: Radioligand binding, dopamine D3 receptor). Conditions: Table 9; read-out: rD3 Ki.
T6 construct: purchased BioSignal, Inc. (Montreal, Canada)
T6 sequence (P19020 whole entry): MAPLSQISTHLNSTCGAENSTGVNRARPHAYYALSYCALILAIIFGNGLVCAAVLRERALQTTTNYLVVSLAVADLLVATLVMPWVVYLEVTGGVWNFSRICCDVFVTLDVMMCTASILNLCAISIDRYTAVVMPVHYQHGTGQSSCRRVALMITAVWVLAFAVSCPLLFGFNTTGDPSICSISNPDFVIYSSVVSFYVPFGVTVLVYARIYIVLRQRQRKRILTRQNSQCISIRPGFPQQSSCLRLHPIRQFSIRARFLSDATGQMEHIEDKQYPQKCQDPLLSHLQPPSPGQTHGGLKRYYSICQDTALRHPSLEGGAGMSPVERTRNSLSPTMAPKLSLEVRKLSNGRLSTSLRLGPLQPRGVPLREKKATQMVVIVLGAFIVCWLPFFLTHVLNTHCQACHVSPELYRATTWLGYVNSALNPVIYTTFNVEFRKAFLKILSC
Source text: as §2, §1

Q: How did the Ki turn out when `Cc1ccc(Nc2cc(N3CCCCC3)nc(N(C)CCc3ccccc3)n2)cc1` [Example 22] was run?
A: The Ki was 5.66 µM.

Same assay, conditions: Table 10; Ki rD3 divided by Ki hGAL3

Q: With `COC[C@@H]1[C@@H](c2ccccc2)OCCN1c1nc(Nc2ccc(C)cc2)cc(N2CCCCC2)n1` [Example 49] as the compound, how does the “selectivity ratio rD3” value read?
A: The value was over 30.

Q: For `Cc1ccc(Nc2cc(N3CCCCC3)nc(N(C)CCc3ccccc3)n2)cc1` [Example 22], which “selectivity ratio rD3” value is on record?
A: The value was over 100.

Q: Which “selectivity ratio rD3” value does the source give for `O=C1C(=Nc2cccc(C(F)(F)F)c2)c2ccccc2N1c1ccccc1` [Example 92, 1-PHENYL-3- [[3-(TRIFLUOROMETHYL)PHENYL]IMINO]-1,3-DIHYDRO-2H-INDOL-2-ONE] here?
A: Its value is over 100.

Same assay, conditions: read-out: rD3 Ki; Table 9

Q: With `COC[C@@H]1[C@@H](c2ccccc2)OCCN1c1nc(Nc2ccc(C)cc2)cc(N2CCCCC2)n1` [Example 49] as the compound, how does the Ki read?
A: The Ki was 14 µM.
